According to patent publication US4880922A, “Carbapenems with quaternized heterothioalkylthio substitution at position 2” (Bristol-Myers Company, priority 1985, dated 1989):
Converted amounts (≈) assume the structure as drawn.

Legend:
[1] = test system: Str. pneumoniae; experiment: In vitro antibacterial activity, MIC by tube dilution; format: cell-based; settings: Streptococcus pneumoniae, Nutrient Broth, overnight, 37° C.
[2] = test system: Str. pyogenes; experiment: as above; format: cell-based; settings: Streptococcus pyogenes, Nutrient Broth, overnight, 37° C.
[3] = test system: Staph. aureus; experiment: as above; format: cell-based; settings: Staphylococcus aureus, Nutrient Broth, overnight, 37° C.
[4] = test system: Staph. aureus (Pen-R); experiment: as above; format: cell-based; settings: Staphylococcus aureus, Nutrient Broth, overnight, 37° C.
[5] = test system: Str. faecalis; experiment: as above; format: cell-based; settings: Enterococcus faecalis, Nutrient Broth, overnight, 37° C.
[6] = test system: E. coli; experiment: as above; format: cell-based; settings: Escherichia coli, Nutrient Broth, overnight, 37° C.
[7] = test system: K. pneumoniae; experiment: as above; format: cell-based; settings: Klebsiella pneumoniae, Nutrient Broth, overnight, 37° C.
[8] = test system: Pr. mirabilis; experiment: as above; format: cell-based; settings: Proteus mirabilis, Nutrient Broth, overnight, 37° C.
[9] = test system: Pr. vulgaris; experiment: as above; format: cell-based; settings: Proteus vulgaris, Nutrient Broth, overnight, 37° C.
[10] = test system: Pr. morganii; experiment: as above; format: cell-based; settings: Morganella morganii, Nutrient Broth, overnight, 37° C.
[11] = test system: Pr. rettgeri; experiment: as above; format: cell-based; settings: Providencia rettgeri, Nutrient Broth, overnight, 37° C.
[12] = test system: Ser. marcescens; experiment: as above; format: cell-based; settings: Serratia marcescens, Nutrient Broth, overnight, 37° C.
[13] = test system: Ent. cloacae; experiment: as above; format: cell-based; settings: Enterobacter cloacae, Nutrient Broth, overnight, 37° C.
[14] = test system: Ps. aeruginosa; experiment: as above; format: cell-based; settings: Pseudomonas aeruginosa, Nutrient Broth, overnight, 37° C.
[15] = test system: Ps. (Carb-R); experiment: as above; format: cell-based; settings: Nutrient Broth, overnight, 37° C.
[16] = test system: Ps. aeruginosa; experiment: Protective effect in the intramuscular treatment of infected mice; format: in vivo; settings: Pseudomonas aeruginosa, im, I.M., column of the in vitro table, read-out: PD50 I.M.
Procedure: The in vivo therapeutic efficacy of the compound of Example 1 after intramuscular administration to mice experimentally infected with various organisms are shown in the following Table. The PD50 (dose in mg/kg required to give protection to 50% of the infected mice) is indicated.
Treatment Schedule: Mice were treated i.m. with drugs 0 and 2 hours

[17] = Blood levels in mice after intramuscular administration; format: in vivo; settings: mouse, im, 20 mg/kg
Text: (§1) Compounds were solubilized in 0.1 M phosphate buffer pH 7. Values are fro
(§2) a single test; 4 mice per compound.

[18] = Urinary recovery after intramuscular administration to mice; format: in vivo; settings: mouse, urine, im, 20 mg/kg, 0-24 hours after administration, 0.1 M phosphate buffer pH 7, single test, 4 mice, read-out: Urinary recovery, Percentage of Dose Recovered
Text: as §1, §2

Work on `C[C@@H](O)[C@H]1C(=O)N2C(C(=O)[O-])=C(SCCSc3cccc[n+]3C)C[C@H]12` [Example 1, (5R,6S) 6-(1R-hydroxyethyl)-3-[(1-methylpyridinium-2-yl)-2-thioethylthio]-7-oxo-1-azabicyclo (3.2.0)hept-2-ene-2-carboxylate] yielded an MIC [1] of 0.0005 µg/mL (≈ 0.00131 µM), an MIC [2] of 0.0005 µg/mL (≈ 0.00131 µM) and an MIC ([3]; Staph. aureus + 50% serum) of 0.008 µg/mL. It also gave an MIC ([3]; Staph. aureus) of 0.004 µg/mL (≈ 0.0105 µM), an MIC [4] of 0.004 µg/mL (≈ 0.0105 µM) and an MIC [5] of 0.13 µg/mL (≈ 0.342 µM). For the same compound, the MIC ([6]; first line (strain not named)) was 0.008 µg/mL (≈ 0.021 µM), the MIC ([6]; second line (strain not named)) was 0.016 µg/mL (≈ 0.0421 µM) and the MIC ([7]; first line (strain not named)) was 0.03 µg/mL (≈ 0.0788 µM). The MIC ([7]; second line (strain not named)) was 0.06 µg/mL (≈ 0.158 µM), the MIC [8] was 0.016 µg/mL (≈ 0.0421 µM) and the MIC [9] was 0.016 µg/mL (≈ 0.0421 µM). It also gave an MIC [10] of 0.06 µg/mL (≈ 0.158 µM), an MIC [11] of 0.13 µg/mL (≈ 0.342 µM) and an MIC [12] of 0.03 µg/mL (≈ 0.0788 µM). The MIC ([13]; first line (strain not named)) was 0.06 µg/mL (≈ 0.158 µM), the MIC ([13]; second line (strain not named)) was 0.13 µg/mL (≈ 0.342 µM) and the MIC [14] was 8 µg/mL (≈ 21 µM). The MIC [15] was 2 µg/mL (≈ 5.26 µM), the ED50 [16] was 2.9 mg/kg and the AUC [17] was 4100 ng·h/mL. It also gave a concentration at 10 min ([17]; 10 min after administration, read-out: Blood Level) of 11100 ng/mL, a concentration at 20 min ([17]; 20 min after administration, read-out: Blood Level) of 8000 ng/mL and a concentration at 0.5 h ([17]; 30 min after administration, read-out: Blood Level) of 3600 ng/mL. The concentration at 0.75 h ([17]; 45 min after administration, read-out: Blood Level) was 1000 ng/mL, the concentration at 1 h ([17]; 60 min after administration, read-out: Blood Level) was under 300 ng/mL and the concentration at 1.5 h ([17]; 90 min after administration, read-out: Blood Level) was under 300 ng/mL. For the same compound, the half-life ([17]; read-out: t1/2 (half-life)) was 8 min and the dose excreted at 24 h [18] was 31.5%.
